Laboratory results as given in US20240082205A1, “USE OF PHTHALIDE COMPOUNDS IN TREATMENT OF MENINGIOMA” (EVERFRONT BIOTECH INC., priority 2020, published 2024).
In brackets after ≈: the same amount, converted by molar mass.

Key:
[1] = test system: IOMM-Lee cells; test: MTT cell viability, killing meningioma cells (IOMM-Lee); type: cell-based, Human; details: IOMM-Lee grade III malignant meningioma cells, 72 hours; for IC50: Homo sapiens, read-out: IC50 (concentration to achieve 50% lethal rate)
From the text: (§1) In the following Examples, the used materials and equipment are described as below: • 1. Human meningioma cell lines: IOMM-Lee cells (purchased from ATCC; CRL-3370;
(§2) belonging to grade III malignant meningioma cells), AMGI-0102 primary culture cells (obtained by the approval according to the human subject research of Hualien Tzu Chi Hospital (Buddhist Tzu Chi Medical Foundation); belonging to grade I benign meningioma cells). • 2. […] Medium for AMGI-0102 cells: DMEM/F12 medium (Dulbecco's Modified Eagle Medium/F12 with L-glutamine, HEPES; purchased from HyClone; product number: SH30023.02) containing 10% Fetal Bovine Serum and 1% penicillin/streptomycin. • 4. Z-butylidenephthalide (Z-BP): provided by Everfront Biotech Inc.; purity 99.8%. • 5. E-butylidenephthalide (E-BP): provided by Everfront Biotech Inc.; purity 98.01%. • 6. 2-pentanolybenzoic acid (BP-OH): provided by Everfront Biotech Inc.; purity 99.6%. • 7. Sodium^2-pentanoylbenzoate (BPONa): provided by Everfront Biotech Inc.; purity 99.7%. • 8. 5-fluorouracil (5-FU): purchased from Sigma; product number: F6627. • 9. Carmustine (BCNU): purchased from Sigma; product number: SI-00400-100MG. • 10. MTIC: purchased from Biosynth Carbosynth; product number: FM26098. • 11. MTT (Thiazolyl Blue tetrazolium bromide, 3-[4,5-dimethylthiahiazo-2-yl]-2,4-dipheny-tetrazolium bromide): purchased from ALFA Aesar™; product number: L11939-000000-16AF. • 12. ELISA reader: purchased from Thermo Fisher Scientific; model number: 22662. • 13. […]
IOMM-Lee cells and AMGI-0102 cells were independently seeded in a 96-well plate (1×10^4 cells/well), and the 96-well plate was placed under an environment of 37° C. and 5% CO2 for 24 hours. After that, the cells in the 96-well plate were subjected to the following procedures: • (a) the cells in different wells were cultured with a medium containing Z-butylidenephthalide, E-butylidenephthalide, 2-pentanolybenzoic acid, or sodium^2-pentanoylbenzoate, and the 96-well plate was placed under an environment of 37° C. and 5% CO2 for 72 hours; • (b) MTT was added into each well (the final concentration is 0.5 mg/ml), and the 96-well plate was placed under an environment of 37° C. and 5% CO2 for 1.5 hours; • (c) the medium of each well was removed, and then dimethyl sulfoxide was added (100 μl/well); and • (d) an absorbance value of each well at 595 nm was measured by an ELISA reader. […]

[2] = test system: AMGI-0102 cells; test: MTT cell viability, killing meningioma cells (AMGI-0102); type: cell-based, Human; details: AMGI-0102 grade I benign meningioma primary culture cells, 72 hours
From the text: as §1
as §2, with “MTT (Thiazolyl Blue tetrazolium bromide, 3-[4,5-dimethylthiahiazo-2-yl]-2,4-dipheny-tetrazolium bromide): purchased from ALFA Aesar™; product number: L11939-000000-16AF. • 12.” left out

[3] = test system: p-JNK protein; test: Western Blotting of p-JNK protein in IOMM-Lee cells; type: cell-based, Human; details: IOMM-Lee cells, 0, 16.8 and 33.6 μg/ml, 24 hours, FIG. 1
From the text: (§3) It is known that the activations (phosphorylation) of ERK (extracellular signal-regulated kinase) protein and JNK (c-Jun N-terminal kinase) protein in the protein kinase family are related to the proliferation of tumor cells. The aforesaid facts can be found in such as: “The ERK and JNK pathways in the regulation of metabolic reprogramming ” Oncogene. 2019; 38: 2223-2240; “ERK Inhibitor LY3214996 Targets ERK Pathway-Driven Cancers: A Therapeutic Approach Toward Precision Medicine.” Mol Cancer Ther. 2020 February; 19(2):325-336; and “The novel JNK inhibitor AS602801 inhibits cancer stem cells in vitro and in vivo.” Oncotarget. 2016 May 10; 7(19):27021-32, which are entirely incorporated hereinto by reference. Therefore, if the activations of ERK protein and JNK protein in tumor cells can be reduced, the meningioma growth will be inhibited.
(§4) IOMM-Lee cells were seeded in a 10 cm culture dish ([…]), and the dish was placed under an environment of 37° C. and 5% CO2 for 24 hours. Then, the cells in different dishes were independently cultured with a medium containing Z-butylidenephthalide at concentrations of 0, 16.8 and 33.6 μg/ml. […] Finally, the expressions of the inactivated JNK protein and ERK protein, and the activated p-JNK protein and p-ERK protein in the cells were detected by Western Blotting. […]

[4] = test system: p-ERK protein; test: Western Blotting of p-ERK protein in IOMM-Lee cells; type: cell-based, Human; details: IOMM-Lee cells, 0, 16.8 and 33.6 μg/ml, 24 hours, FIG. 1
From the text: as §3, §4

[5] = test system: grade III meningioma; test: Human test: tumor size by T1-weighted MRI after wafer implantation; type: in vivo; details: one subject with grade III meningioma; six wafers (75 mg Z-butylidenephthalide per wafer) implanted in resection cavity, plus oral temozolomide; up to 224 days after operation
Protocol: In this example, depending on the approval of the Research Ethics Committee Hualien Tzu Chi Hospital (Buddhist Tzu Chi Medical Foundation; SP109-04), meningioma patients were administered with Z-butylidenephthalide to observe the effects of the compounds of the present invention on inhibiting meningioma growth.
During the surgical operation for resecting meningioma in a subject (suffered with grade III meningioma), six wafers containing Z-butylidenephthalide (75 mg of Z-butylidenephthalide per wafer) were implanted into the cavity generated by resecting meningioma. The subject also took 150 mg/m^2 of body surface area/day (the first treatment course) or 200 mg/m^2 of body surface area/day (the second to sixth treatment course) of temozolomide via oral administration every day post-operation. […] On the other hand, the tumor size in the pictures of the subject's brain (at pre-operation, and post-operative days 1, 28, 84, 168, and 224), obtained by T1-weighted magnetic resonance imaging, was also calculated by using StealthStation S7 software (purchased from Medtronic company, US).

In the case of 2-pentanolybenzoic acid, the “IC50 (concentration to achieve 50% lethal rate)” value [1] is reported as 304.3 µg/mL and the “IC50 (concentration to achieve 50% lethal rate)” value [2] is reported as 1286.3 µg/mL.
Work on `CCC/C=C1/OC(=O)c2ccccc21` [E-butylidenephthalide] yielded an IC50 [1] of 306 µg/mL (≈ 1630 µM).
For `CCC/C=C1\OC(=O)c2ccccc21` [Z-butylidenephthalide], the IC50 [1] was 33.5 µg/mL (≈ 178 µM), the IC50 ([2]; Homo sapiens, read-out: IC50 (concentration to achieve 50% lethal rate)) was 94.5 µg/mL (≈ 502 µM) and the “expression of p-JNK protein” value [3] was “significantly decreased”. The “expression of p-ERK protein” value [4] was “significantly decreased” and the “tumor size of the subject” value [5] was “no change in the tumor size”.
Compound `CCCCC(=O)c1ccccc1C(=O)[O-].[Na+]` [sodium 2-pentanoylbenzoate] has an IC50 [1] of 365 µg/mL.
